Laboratory results published in article PMC3111206, “Phase I study of PD 0332991, a cyclin-dependent kinase inhibitor, administered in 3-week cycles (Schedule 2/1)” (British Journal of Cancer, 2011).
Entries after “also recorded” stand apart in the source; their conditions may differ.

What was measured:
[1] = Safety assessment: adverse events and haematological toxicity graded by NCI CTCAE v3.0; format: in vivo, human
Protocol: Safety was assessed at baseline, at regular intervals throughout the study, and within 1 week following treatment discontinuation by recording AEs, haematological and biochemical parameters, and physical status (including ECOG performance status). Adverse event severity was graded using the National Cancer Institute Common Terminology Criteria for Adverse Events, version 3.0 ([Trotti et al, 2003]). Triplicate electrocardiograms (ECGs) ∼2 min apart were taken at baseline, 3 h post-dose on days 1, 8 and 15 of cycle 1, and on day 15 of subsequent cycles for up to six cycles.

[2] = tested on: Rb-negative tumours; parameters: method as in Fry et al, 2004; conditions: in vivo; ref Fry et al, 2004; cited from earlier work
[3] = Cycle 1, all cohorts combined (N=33)
[4] = maximum toxicity grade, worsened vs baseline, all cohorts and all cycles (N=33)

Structure (SMILES): CC(=O)c1c(C)c2cnc(Nc3ccc(N4CCNCC4)cn3)nc2n(C2CCCC2)c1=O [PD 0332991]
- Treatment-related Diarrhoea, All grades [1, 3]: 6 (18) n (%)
- Treatment-related Diarrhoea, Grade 3 [1, 3]: 0 n (%)
- Treatment-related Dyspnea, All grades [1, 3]: 3 (9) n (%)
- Treatment-related Dyspnea, Grade 3 [1, 3]: 0 n (%)
- Treatment-related Epistaxis, All grades [1, 3]: 0 n (%)
- Treatment-related Epistaxis, Grade 3 [1, 3]: 0 n (%)
- Treatment-related Fatigue, All grades [1, 3]: 11 (33) n (%)
- Treatment-related Fatigue, Grade 3 [1, 3]: 0 n (%)
- Treatment-related Flatulence, All grades [1, 3]: 0 n (%)
- Treatment-related Flatulence, Grade 3 [1, 3]: 0 n (%)
- Treatment-related Mucosal inflammation, All grades [1, 3]: 0 n (%)
- Treatment-related Mucosal inflammation, Grade 3 [1, 3]: 0 n (%)
- Treatment-related Muscular weakness, All grades [1, 3]: 0 n (%)
- Treatment-related Muscular weakness, Grade 3 [1, 3]: 0 n (%)
- Treatment-related Nausea, All grades [1, 3]: 10 (30) n (%)
- Treatment-related Nausea, Grade 3 [1, 3]: 0 n (%)
- Treatment-related Peripheral oedema, All grades [1, 3]: 3 (9) n (%)
- Treatment-related Peripheral oedema, Grade 3 [1, 3]: 0 n (%)
- Treatment-related Pyrexia, All grades [1, 3]: 1 (3) n (%)
- Treatment-related Pyrexia, Grade 3 [1, 3]: 0 n (%)
- Treatment-related Rash, All grades [1, 3]: 4 (12) n (%)
- Treatment-related Rash, Grade 3 [1, 3]: 0 n (%)
- Treatment-related Vomiting, All grades [1, 3]: 2 (6) n (%)
- Treatment-related Vomiting, Grade 3 [1, 3]: 0 n (%)
- Patients with treatment interrupted following treatment-related AEs ([1]; after cycle 1 (two 200-mg QD, one 225-mg QD)): three
- Diarrhoea incidence ([1]; after cycle 1, all cohorts): 30%
- Epistaxis incidence ([1]; after cycle 1, all cohorts): 12%
- Fatigue incidence ([1]; after cycle 1, all cohorts): 30%
- Nausea incidence ([1]; after cycle 1, all cohorts): 15%
- Grade 1/2 leukopenia and thrombocytopenia ([1]; all cohorts): 58–67 % of patients
- Grade 3/4 leukopenia and neutropenia ([1]; all cohorts): 20–25 % of patients
- Patients requiring dose reductions ([1]; all cohorts): Five
- Patients who discontinued treatment permanently because of treatment-related AEs ([1]; all cohorts): No patient
- Treatment-related grade 4 non-haematological AEs ([1]; all cohorts): no treatment-related grade 4 non-haematological AEs; also recorded: no treatment-related grade 4 toxicity
- Grade 3 or 4 leukopenia ([1]; all cohorts and cycles): 21%
- Grade 3 or 4 lymphopenia ([1]; all cohorts and cycles): 36%
- Grade 3 or 4 neutropenia ([1]; all cohorts and cycles): 24%
- Grade 3 or 4 thrombocytopenia ([1]; all cohorts and cycles): 9%
- Grade 3 or 4 anaemia ([1]; all cohorts and cycles, a single patient): 3%
- Number of grade 3 non-haematological AEs ([1]; all cohorts, all after the first cycle (fatigue, hyperglycaemia, hyponatremia, nausea, vomiting; n=1 each)): Five
- Constipation incidence ([1]; during cycle 1, all cohorts): 12%
- Diarrhoea incidence ([1]; during cycle 1, all cohorts): 18%
- Fatigue incidence ([1]; during cycle 1, all cohorts): 33%
- Nausea incidence ([1]; during cycle 1, all cohorts): 30%
- Rash incidence ([1]; during cycle 1, all cohorts): 12%
- Anaemia, Grade 1/2 [1, 4]: 21 (64) n (%)
- Anaemia, Grade 3/4 [1, 4]: 1 (3) n (%)
- Leukopenia, Grade 1/2 [1, 4]: 22 (67) n (%)
- Leukopenia, Grade 3/4 [1, 4]: 7 (21) n (%)
- Lymphopenia, Grade 1/2 [1, 4]: 8 (24) n (%)
- Lymphopenia, Grade 3/4 [1, 4]: 12 (36) n (%)
- Neutropenia, Grade 1/2 [1, 4]: 14 (42) n (%)
- Neutropenia, Grade 3/4 [1, 4]: 8 (24) n (%)
- Thrombocytopenia, Grade 1/2 [1, 4]: 19 (58) n (%)
- Thrombocytopenia, Grade 3/4 [1, 4]: 3 (9) n (%)
- Activity against Rb-negative tumours [2]: without activity
